The compounds below were run against T1, menin-MLL interaction (Homo sapiens, UniProt O00255) (assay: biochemical).
T1 sequence (O00255 1-610): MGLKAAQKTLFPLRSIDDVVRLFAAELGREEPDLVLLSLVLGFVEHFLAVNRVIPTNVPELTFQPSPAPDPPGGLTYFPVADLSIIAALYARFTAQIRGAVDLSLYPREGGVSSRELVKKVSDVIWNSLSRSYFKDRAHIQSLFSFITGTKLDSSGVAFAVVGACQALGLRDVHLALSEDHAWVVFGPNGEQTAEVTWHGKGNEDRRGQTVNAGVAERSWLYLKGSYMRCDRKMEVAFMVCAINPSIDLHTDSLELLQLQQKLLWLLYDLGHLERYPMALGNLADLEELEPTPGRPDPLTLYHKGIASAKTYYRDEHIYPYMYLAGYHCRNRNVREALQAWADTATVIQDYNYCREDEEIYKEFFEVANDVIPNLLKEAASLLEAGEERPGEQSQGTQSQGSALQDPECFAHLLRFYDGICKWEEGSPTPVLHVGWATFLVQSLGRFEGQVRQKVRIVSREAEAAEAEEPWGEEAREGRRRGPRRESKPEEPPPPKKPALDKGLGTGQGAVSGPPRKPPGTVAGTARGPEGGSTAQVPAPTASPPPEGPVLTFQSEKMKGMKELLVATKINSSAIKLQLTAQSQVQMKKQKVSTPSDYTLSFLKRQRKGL
Description: Compounds that inhibit the interaction decrease the fluorescence anisotropy which is being used as a read-out for compound screening and for IC50 determination.

Row | Compound | IC50 [nM]
1 | CC1(C)CN=C(C2C[C@@H]3C[C@H]2CN3c2ncnc3sc(CC(F)(F)F)cc23)S1 (mixture of isomers) [Compound 14] | 100 to 500
2 | O[C@@H]1CN(Cc2ccccc2)CC[C@H]1Nc1ncnc2sc(CC(F)(F)F)cc12 (relative stereo) [Compound 165] | 100 to 500
3 | CC1(C)CN=C(N2C[C@@H]3CC[C@H]2CN3c2ncnc3sc(CC(F)(F)F)cc23)S1 [Compound 2] | < 100
4 | FC(F)(F)Cc1sc2ncnc(N3CCN(c4nnc(C(F)(F)F)s4)CC3)c2c1I [Compound 6] | 100 to 500
5 | Cc1c(CC(F)(F)F)sc2ncnc(N3CCN(c4nnc(C(F)(F)F)s4)CC3)c12 [Compound 7] | 100 to 500
6 | FC(F)(F)Cc1cc2c(N3CCN(CC4CCCCC4)CC3)ncnc2s1 [Compound 9] | 100 to 500
7 | FC(F)(F)Cc1cc2c(N3CCN(C4CCCCC4)CC3)ncnc2s1 [Compound 11] | 100 to 500
8 | N#Cc1ccc(N2CCC(N3CCN(c4ncnc5sc(CC(F)(F)F)cc45)CC3)CC2)cc1 [Compound 13] | 100 to 500
9 | FC(c1cc2c(N3CCN(c4nnc(C(F)(F)F)s4)CC3)ncnc2s1)C(F)(F)F (stereo not shown) [Compound 21] | 500 to 2000
10 | CC1(C)CN=C(N2CCN(c3ncnc4sc(CCCC(F)(F)F)cc34)CC2)S1 [Compound 22] | 500 to 2000
11 | OC(c1cc2c(N3CCN(c4nnc(C(F)(F)F)s4)CC3)ncnc2s1)C(F)(F)F (stereo not shown) [Compound 23] | 500 to 2000
12 | FC(F)(F)c1nnc(N2CCN(c3ncnc4sc(C(F)(F)C(F)(F)F)cc34)CC2)s1 [Compound 24] | 500 to 2000
13 | COCCCc1cc2c(N3CCN(C4=NCC(C)(C)S4)CC3)ncnc2s1 [Compound 25] | 500 to 2000
14 | CN1CCC(N2CCN(c3ncnc4sc(CC(F)(F)F)cc34)CC2)CC1 [Compound 27] | 500 to 2000
15 | FC(F)(F)c1nnc(N2CCN(c3ncnc4sc(C5CC5)cc34)CC2)s1 [Compound 28] | 500 to 2000
16 | CC(C)c1cc2c(N3CCN(C4=NCC(C)(C)S4)CC3)ncnc2s1 [Compound 30] | 500 to 2000

Row | Compound | IC50 [nM]
17 | CCCc1cc2c(N3CCN(C4CCCCCC4)CC3)ncnc2s1 [Compound 31] | 500 to 2000
18 | CC1(C)CN=C(N2CCN(c3ncnc4sc(CCc5ccccc5)cc34)CC2)S1 [Compound 35] | 500 to 2000
19 | CC1(C)CN=C(N2CCN(c3ncnc4sc(CCC5CC5)cc34)CC2)S1 [Compound 36] | 500 to 2000
20 | CC1(C)CN=C(N2CCN(c3ncnc4sc(CCCc5ccccc5)cc34)CC2)S1 [Compound 37] | 500 to 2000
21 | CC(c1cc2c(N3CCN(C4=NCC(C)(C)S4)CC3)ncnc2s1)C(F)(F)F (stereo not shown) [Compound 38] | 500 to 2000
22 | CC1(C)CN=C(N2CCN(c3ncnc4sc(CCCCc5ccccc5)cc34)CC2)S1 [Compound 40] | 500 to 2000
23 | CN(C)S(=O)(=O)Nc1ccc(CC(=O)N2CCN(c3ncnc4sc(CC(F)(F)F)cc34)CC2)cc1 [Compound 51] | < 100
24 | O=C(Cc1ccc(NS(=O)(=O)N2CCCCC2)cc1)N1CCN(c2ncnc3sc(CC(F)(F)F)cc23)CC1 [Compound 52] | < 100
25 | O=C(Cc1ccc(NS(=O)(=O)N2CCOCC2)cc1)N1CCN(c2ncnc3sc(CC(F)(F)F)cc23)CC1 [Compound 53] | < 100
26 | CN1CCN(S(=O)(=O)Nc2ccc(CC(=O)N3CCN(c4ncnc5sc(CC(F)(F)F)cc45)CC3)cc2)CC1 [Compound 55] | < 100
27 | CC(C)S(=O)(=O)Nc1ccc(CC(=O)N2CCN(c3ncnc4sc(CC(F)(F)F)cc34)CC2)cc1 [Compound 56] | < 100
28 | CC(=O)NCCS(=O)(=O)Nc1ccc(CC(=O)N2CCN(c3ncnc4sc(CC(F)(F)F)cc34)CC2)cc1 [Compound 57] | < 100
29 | CN(C)CCS(=O)(=O)Nc1ccc(CC(=O)N2CCN(c3ncnc4sc(CC(F)(F)F)cc34)CC2)cc1 [Compound 59] | < 100
30 | CC(C)NCCS(=O)(=O)Nc1ccc(CC(=O)N2CCN(c3ncnc4sc(CC(F)(F)F)cc34)CC2)cc1 [Compound 60] | < 100
31 | CS(=O)(=O)N(CC#N)c1ccc(CC(=O)N2CCN(c3ncnc4sc(CC(F)(F)F)cc34)CC2)cc1 [Compound 61] | < 100

Now from value to compound:

Row | IC50 [nM] | Compound
32 | 100 to 500 | FC(F)(F)Cc1cc2c(N3CCN(c4nnc(C5CC5)s4)CC3)ncnc2s1 [Compound 3]
33 | 100 to 500 | NCc1nnc(N2CCN(c3ncnc4sc(CC(F)(F)F)cc34)CC2)s1 [Compound 4]
34 | 100 to 500 | FC(F)(F)Cc1cc2c(N3CCN(c4nnc(CC(F)(F)F)s4)CC3)ncnc2s1 [Compound 8]
35 | 100 to 500 | COc1ccc(CCCc2nnc(N3CCN(c4ncnc5sc(CC(F)(F)F)cc45)CC3)s2)cc1 [Compound 12]
36 | 500 to 2000 | FC(F)(F)Cc1cc2c(N3CCN(c4nnc(CCCC5CCCCC5)s4)CC3)ncnc2s1 [Compound 17]
37 | 500 to 2000 | FC(F)(F)CCc1nnc(N2CCN(c3ncnc4sc(CC(F)(F)F)cc34)CC2)s1 [Compound 18]
38 | 500 to 2000 | FC(F)(F)Cc1cc2c(N3CCN(c4nnc(CC5CCCC5)s4)CC3)ncnc2s1 [Compound 19]
39 | 500 to 2000 | FC(F)(F)Cc1cc2c(N3CCN(c4nnc(C(F)(F)F)o4)CC3)ncnc2s1 [Compound 20]
40 | 500 to 2000 | CC(C)c1cc2c(N3CCN(c4nnc(C(F)(F)F)s4)CC3)ncnc2s1 [Compound 32]
41 | 500 to 2000 | CCCc1cc2c(N3CCN(c4nnc(C(F)(F)F)s4)CC3)ncnc2s1 [Compound 33]
42 | 500 to 2000 | CCCCc1cc2c(N3CCN(c4nnc(C(F)(F)F)s4)CC3)ncnc2s1 [Compound 34]
43 | 500 to 2000 | FC(F)(F)Cc1cc2c(N3CCN(c4nnc(CC5CCCCC5)s4)CC3)ncnc2s1 [Compound 39]
44 | 500 to 2000 | FC(F)(F)Cc1cc2c(N3CCN(c4nnc(CCCc5ccccc5)s4)CC3)ncnc2s1 [Compound 41]
45 | 500 to 2000 | FC(F)(F)Cc1cc2c(N3CCN(c4nnc(CCc5ccccc5)s4)CC3)ncnc2s1 [Compound 42]
46 | < 100 | CS(=O)(=O)Cc1ccc(CC(=O)N2CCN(c3ncnc4sc(CC(F)(F)F)cc34)CC2)cc1 [Compound 43]
47 | < 100 | NS(=O)(=O)Cc1ccc(CC(=O)N2CCN(c3ncnc4sc(CC(F)(F)F)cc34)CC2)cc1 [Compound 44, (4-(2-oxo-2-(4-(6-(2,2,2-trifluoroethyl)thieno[2,3-d]pyrimidin-4-yl)piperazin-1-yl)ethyl)phenyl)methanesulfonamide]
48 | < 100 | CS(=O)(=O)Nc1ccc(CC(=O)N2CCN(c3ncnc4sc(CC(F)(F)F)cc34)CC2)cc1 [Compound 45]
49 | < 100 | CN(c1ccc(CC(=O)N2CCN(c3ncnc4sc(CC(F)(F)F)cc34)CC2)cc1)S(C)(=O)=O [Compound 46]
50 | < 100 | NS(=O)(=O)Nc1ccc(CC(=O)N2CCN(c3ncnc4sc(CC(F)(F)F)cc34)CC2)cc1 [Compound 47]
51 | < 100 | CNS(=O)(=O)Nc1ccc(CC(=O)N2CCN(c3ncnc4sc(CC(F)(F)F)cc34)CC2)cc1 [Compound 48]
52 | < 100 | CCS(=O)(=O)Nc1ccc(CC(=O)N2CCN(c3ncnc4sc(CC(F)(F)F)cc34)CC2)cc1 [Compound 49]
53 | < 100 | NCCS(=O)(=O)Nc1ccc(CC(=O)N2CCN(c3ncnc4sc(CC(F)(F)F)cc34)CC2)cc1 [Compound 50]
54 | < 100 | CCCCS(=O)(=O)Nc1ccc(CC(=O)N2CCN(c3ncnc4sc(CC(F)(F)F)cc34)CC2)cc1 [Compound 54]
55 | < 100 | CNCCS(=O)(=O)Nc1ccc(CC(=O)N2CCN(c3ncnc4sc(CC(F)(F)F)cc34)CC2)cc1 [Compound 58]

Reference: patent US9505781B2, “Compositions comprising thienopyrimidine and thienopyridine compounds and methods of use thereof” (The Regents of the University of Michigan, priority 2013, dated 2016)
